Test results taken from US11383003B2, “Water soluble farnesol analogs and their use” (Kimberly-Clark Worldwide, Inc., priority 2012, dated 2022).

Tests used:
C. albicans SC5314 = assay: Germ tube formation (GTF %) in vitro screening, GlcNAc-triggered differentiation assay; format: cell-based, Candida albicans
Protocol: Based on the results in FIG. 3, single cell suspensions of SC5314 was prepared as follows. Stock culture of C. albicans SC5314 was streaked onto YPD agar (YPDA) and incubated at 30° C. overnight. Single colonies were subcultured in YPD broth (YPDB) and incubated 30° C., 200 rpm overnight. Overnight culture in YPDB was subcultured in YPD broth again and incubated 30° C., 200 rpm 48 h. Cells were collected by centrifugation (4000 g 10 min) at 4° C., washed three times with sterile water, and then resuspended in sterile water a final concentration of 10^9 colony-forming unit/ml (cfu/ml). The suspension were stored at 4° C. at least 1 d, then subcultured into YPDB to a final concentration of 10^6 cfu/ml. After 48 h incubation, cell suspension was examined under the microscope for single cell percentage. When the single cell percentage exceeded 80%, cells were collected and washed three times with water, then resuspended in water to a final concentration of 10^9 cfu/ml, and stored at 4° C. for no more than a month.
Two approaches were taken to determine the percentage of cells with germ tubes formed (GTF %). One way was to count the total cells at the start of incubation, and count the ungerminated cells after incubation, then calculate the GTF % as (1—ungerminated cells/total cells at 0 h)*100. Another way was to store the samples at 15° C. for 20 h after incubation, then count the germinated cells and total cells after disaggregation, then calculated the GTF % as (germinated cells/total cells after storage)*100. […] Therefore, for practical purposes, the GTF % was determined by the first method, that is, GTF %=(1—ungerminated cells/total cells at 0 h)*100, for the in vitro screening discussed herein.
A screening medium, containing 11 mM imidazole buffer, 3 mM MgSO4, and 2.6 mM N-acetyl-D-glucosamine (GlcNAc) has been used to study the effect of farnesol analogs on the germ tube formation of C. albicans. Here, the germ tube formation of C. albicans in modified screening media was assessed with various concentrations of imidazole buffer (10 mM, 30 mM and 50 mM) and MgSO4 (0.5 mM, 1.5 mM and 3 mM). […] It took 2 h to 3 h for the GTF % to reach above 80%. For practical purposes, the screening medium, containing 11 mM imidazole buffer, 0.5 mM MgSO4, and 2.6 mM N-acetyl-D-glucosamine (GlcNAc) was adopted for in vitro screening the quorum sensing inhibitory effect of farnesol compounds.
The in vitro screening assay was based on the N-acetylglucosamine (GlcNAc)-triggered differentiation assay (Hornby et al., “Quorum sensing in the dimorphic fungus Candida albicans is mediated by farnesol;” Applied and Environmental Microbiology 67:2982-2992; 2001), which included 0.56 ml of 0.1 M imidazole buffer (pH 6.5), 0.15 ml of 0.1 M MgSO4, 0.13 ml of 0.1 M GlcNAc, and 4.16 ml of sterilized water. Bioassays of quorum sensing candidates were conducted by the addition of the chemical, as a solution in 100% methanol, to the bioassay media; the final concentration of methanol was no greater than 1%.

C. elegans glp4; sek1 = assay: Toxicity: death rate of C. elegans glp4; sek1 fed on E. coli OP50; conditions: for Death rate (%): 2 mM, worms fed on E. coli OP50, 25° C.
Protocol: The toxicity of the selected compounds/products were tested using the C. elegans glp4; sek1 fed on E. coli OP50 (Table 5).
Stock cultures of C. albicans SC 5314 was subcultured into 3 ml of YPD broth and incubated at 30° C. Then the overnight culture in broth was spread onto YPD agar, and incubated at 30° C. The 24 h old lawn of SC5314 was used to feed worms for 2 h at 25° C. The control were worms fed on OP50.
The worms were washed off the YPD plates and washed twice with M9 buffer. The worms were resuspended in screening media, M9 buffer with 0.3% Tween 80. The worm suspension (50 μl) was dispensed into the wells of 96-well plates, 20-30 worms/well. Aliquots (50 μl) of compounds in screening media were added to wells, 5 wells each compound. The 96 well plates were incubated at 25° C. for up to 5 days. Live and dead worms were counted during incubation, and the death rates of worms were calculated.

[1] = system: C. elegans glp4; sek1 infected with C. albicans SC5314; assay: Death rate of C. elegans glp4; sek1 infected with C. albicans SC5314, 96 well plates; format: in vivo, Caenorhabditis elegans; conditions: for % change in the death rate compared to the control: 25° C.
Protocol: Caenorhabditis elegans glp4; sek1 was used as the model for […]. Breger et al. (Breger, J.; Fuchs, B. B.; Aperis, G.; Moy, T. I., Ausubel, F. M., Mylonakis, E.; “Antifungal chemical compounds identified using a C. elegans pathogenicity assay.” PLoS Pathogens 3: 168-178; 2007) reported that the glp-4 mutation rendered the strain incapable of producing progeny at 25° C., and the sek-1 mutation enhanced the sensitivity of the strain to various pathogens, thereby decreasing the time for screening assays. It was observed that no progenies was produced by the Caenorhabditis elegans glp4; sek1 strain after 3 d incubation at 25° C.
The synchronization of C. elegans was achieved by collecting the eggs and arresting the larvae at L1 stage. The commonly used bleach treatment was able to release the eggs from the adult worms. However, it was observed that the released eggs were not always able to hatch after treated with sodium hypochlorite (0.2, 0.3, 0.4, 0.5, 0.7 or 1%) for 3-5 min. A modified egg laying method was developed to synchronize worms to L1 stage. In brief, stock cultures of C. elegans glp4; sek1, maintained on Nematode Growth Media plates (NGM plates), were subcultured onto NGM plates with OP 50 and incubated at 15° C. for 6-9 days. Then a chunk (1 cm^2) of agar with gravid adults was subcultured again onto NGM plates with OP50 and incubated at 15° C. After incubation of 3-7 days, the worms were gently washed off with 3 ml of M 9 buffer on the rotating platform (100 rpm). The plate was tilted on its lid to allow the liquid and worms drain to one side of the plate. The liquid and worms were aspirated off. The plate was washed again with M9 buffer three more times to remove OP50 as much as possible. After washing, the plate was incubated at 25° C. overnight to let the eggs hatch overnight. Since there was no OP50, the larvae were arrested at the L1 stage. The live C. elegans glp4; sek1 was quite curvy; whereas the dead C. elegans glp4; sek1 tended to be straight, and in most cases the dead worms with the hyphae of C. albicans pieced through the body. The curvy shape and movement after shaking were used as the criteria for live.
The In vitro screening assay, based on the method of Tampakakis et al (Tampakakis, E.; Okoli, I.; Mylonakis, E.; “A C. elegans-based, whole animal, in vivo screen for the identification of antifungal compounds.” Nature Protocols 3:1925-1931; 2008), is described as follows:
L1 worms, which were prepared by the modified egg-laying method, were collected by centrifugation at 675 g for 30 s at room temperature, and the supernatant was removed. Worms were resuspended in M 9 buffer and inoculated on NGM agar plates with OP50, ˜1000 worms per plate. After 2-3 days incubation at 25° C., the worms were washed off with M 9 buffer for the […] assay.
The control were worms fed on OP50.

[2] = 2.0 mM, 4 days, two replicates (* three)
[3] = 2.0 mM, 5 days, two replicates (* three)
[4] = key finding, no concentration stated
[5] = 0.4 mM to 3 mM (the tested four concentrations)

SMILES	GTF % (mean ± SEM, n = 2) (C. albicans SC5314; 100 μM, * one replicate)	GTF % (mean ± SEM, n = 2) (C. albicans SC5314; 200 μM)	Death rate (%) (C. elegans glp4; sek1)	% change in the death rate compared to the control ([1]; 0.4 mM, 4 days, two replicates)	% change in the death rate compared to the control ([1]; 0.4 mM, 5 days, two replicates)	% change in the death rate compared to the control ([1]; 1.0 mM, 4 days, two replicates)	% change in the death rate compared to the control ([1]; 1.0 mM, 5 days, two replicates)	% change in the death rate compared to the control [1, 2]	% change in the death rate compared to the control [1, 3]	% change in the death rate compared to the control ([1]; 3.0 mM, 4 days, two replicates)	% change in the death rate compared to the control ([1]; 3.0 mM, 5 days, two replicates)	further results
OCCc1ccc(O)c(O)c1 [hydroxytyrosol]	78.0* %	84.9 ± 0.1%	–	–	–	–	–	–	–	–	–	–
OC=Cc1ccccc1 [β-phenylethenol]	91.7* %	84.5 ± 0.3%	–	–	–	–	–	–	–	–	–	–
CC(C)=CCC/C(C)=C/CC/C(C)=C/COC(=O)CCC(=O)O [#1 synthesized analog]	55.9 ± 8.2%	31.2 ± 5.0%	3.3 ± 1.2%	−43 ± 8%	−30 ± 2%	−33 ± 5%	−29 ± 11%	−23 ± 4%	−34 ± 11%	20 ± 3%	10 ± 9%	effect on death rate of infected C. elegans (in words) ([1]; 0.4 mM to 2 mM): significantly reduced the death rate; effect on death rate of infected C. elegans (in words) ([1]; 3 mM): increased the death rate; effect on death rate of infected C. elegans (in words) [1, 4]: significantly reduced the death rate
CC(C)=CCC/C(C)=C/CC/C(C)=C/COC(=O)CCC(=O)OCCCO [#3 synthesized analog]	66.9 ± 1.5%	32.9 ± 1.0%	6%	−6 ± 7%	10 ± 3%	1 ± 6%	3 ± 8%	−12 ± 9%	9 ± 10%	−2 ± 2%	7 ± 1%	effect on death rate of infected C. elegans (in words) [1, 5]: did not have significant effect on the death of the worms
C=CC(C)(O)CC/C=C(\C)CCC=C(C)C (stereo not drawn) [trans-nerolidol, reference compound]	92.4* %	51.6 ± 1.8%	23%	11 ± 4%	4 ± 5%	3 ± 7%	−8 ± 5%	25 ± 10%	10 ± 2%	7 ± 0%	9 ± 9%	toxicity to C. elegans fed on E. coli OP50 (in words) (C. elegans glp4; sek1; in vivo): toxic to the worm; effect on death rate of infected C. elegans (in words) [1, 5]: increased the death rate of the worm significantly
O=C(O)Cc1ccc(O)cc1 [4-hydroxy phenyl acetic acid]	93.1* %	86.2 ± 1.8%	–	–	–	–	–	–	–	–	–	–
CC(C)=CCC/C(C)=C/CC/C(C)=C/COCCCO [#6 synthesized analog]	75.1 ± 0.5%	51.1 ± 3.2%	–	–	–	–	–	–	–	–	–	–
COc1cc(CCN)ccc1O [3-Methoxy-4-hydroxy-phenylethyl amine]	95.7* %	86.4 ± 3.3%	–	–	–	–	–	–	–	–	–	–
CC(C)=CCC/C(C)=C/CC/C(C)=C/COC(=O)CCC(=O)OCCCCO [#2 synthesized analog]	71.2 ± 2.9%	33.9 ± 0.6%	4 ± 0.6%	−36 ± 4%	−38 ± 2%	−28 ± 5%	−29 ± 10%	−39 ± 11%	−39 ± 11%	−40 ± 0%	−40 ± 4%	effect on death rate of infected C. elegans (in words) [1, 5]: reduced the death rate significantly; effect on death rate of infected C. elegans (in words) [1, 4]: significantly reduced the death rate
O=C(O)Cc1ccccc1O [2-hydroxy phenyl acetic acid]	90.3* %	71.3 ± 2.5%	–	–	–	–	–	–	–	–	–	–
OC[C@H]1O[C@@H](OCCc2ccc(O)cc2)[C@H](O)[C@@H](O)[C@@H]1O [salidroside]	93.2* %	78.0 ± 5.9%	–	–	–	–	–	–	–	–	–	–
CC(C)=CCC/C(C)=C/CC/C(C)=C/CO[C@@H]1C(O)C(O)OC(CO)C1O (stereo partly shown) [#8 synthesized analog]	76.6 ± 0.3%	66.3 ± 0.6%	–	–	–	–	–	–	–	–	–	–
CC(C)=CCC/C(C)=C/CC/C(C)=C/COCCO [#7 synthesized analog]	72.6 ± 1.7%	58.8 ± 2.1%	–	–	–	–	–	–	–	–	–	–
